Key:
[1] = system: PDOs from breast cancer patients; experiment: Patient-derived organoids co-cultured with autologous CD8+ T cells; type: cell-based, human; settings: for T cell cytotoxicity: PDO2 and PDO7
Description: Breast tumor organoid culture: Single cells isolated from EO771-derived tumors in tumor-bearing C57BL/6 mice were suspended into cold mouse breast cancer culture medium containing 10% Matrigel (Corning) with a concentration of 2×10^5 cells ml^−1. The cells (2 ml) were seeded into each well of pre-warmed 6-well microplate with ultra-low attachment surface (Corning) and cultured at 37° C. with 5% CO2. The same volume of fresh culture medium was added every other day. After 7-day culture, tumor organoids were collected using cell strainers with pore size of 70 and 150 μm. For human tumor organoid culture, 2 ml of NY-ESO-1+ MDA-MB-468 cells with a concentration of 2×10^5 cells ml-1 were seeded into each well of the prewarmed 6-well microplate with ultra-low attachment surface. The cells were cultured for two days to generate tumor spheroids. The resulting spheroids were mixed with cancer associated fibroblasts (CAFs) with a ratio of 2:1 (tumor cells versus CAFs) and cultured in the human breast cancer organoid culture medium3 for 5 days. Finally, the MDA-MB-468 tumor organoids with diameter of 70˜150 μm were used for co-culture with NY-ESO-1-specific human CD8+ T cells (ASTARTE Biologics). Patient-derived organoids (PDOs) were cultured following the same procedures as mouse EO771 tumor organoids using human breast cancer organoid culture medium.
Cytotoxicity of CD8+ T cells in the co-culture with tumor organoids We generated mouse EO771 (Luc+OVA+) cell line that presents OVA257-264 antigen (from chicken ovalbumin) and human MDA-MB-468 (NY-ESO-1+) cell line that presents NY-ESO-1 antigen for use in the T cell-mediated cytotoxicity assay. OVA-specific CD8+ T cells were isolated from the spleen of OT-I mouse that contains transgenic inserts of Tcra-V2 and Tcrb-V5 genes. The transgenic T cell receptor can recognize the ovalbumin peptide SIINFEKL (OVA257-264; SEQ ID NO: 55). Anti-NY-ESO-1 human CD8^+ T cells (CELLERO™) were used to recognize the NY-ESO-1+ MDA-MB-468 cells. Autologous human CD8+ T cells were isolated from patient tumor tissues and amplified in the DMEM/F12 medium supplemented with 10% FBS, 2 mM Ultraglutamine I, 1% penicillin/streptomycin and 10 ng mL-1 of human IL2 for 7 days. The CD8+ T cells were stimulated by the T-activator CD3/CD28 Dynabeads (Gibco, 11452D for mouse and 11131D for human) for 48 h prior to use for cytotoxicity assay. Mouse and human tumor organoids with diameter between 70 and 150 μm were collected and mixed with corresponding CD8+ T cells in DMEM/F12 medium supplemented with 10% FBS, 2 mM Ultraglutamine I, 1% penicillin/streptomycin and 10 ng mL-1 IL2 (Biolegend, mouse: 575402; human: 589102) at a ratio of organoids versus T cells at 1:200 in the microplates with ultra-low attachment surface. The cells were co-cultured for 24 h and subject to further analyses, such as optical and fluorescence imaging, luciferase assay or flow cytometry.
There is an unmet clinical need to predict responsiveness to new cancer immunotherapy. Both syngeneic mouse models and humanized patient-derived xenograft (PDX) models are time-consuming and not cost-efficient. Here, we wanted to apply the standardized tumor organoid model in this study to predict the therapeutic responses to BML-210, CUDC-101 and GSK-LSD1. In this setting, autologous CD8+ T cells were isolated from patient tumor tissues and amplified for a week. Patient-derived organoids (PDOs) were generated from 10 patients with breast cancer (Table 2). The PDOs from each patient were characterized and compared with their originating tumors using Hematoxylin and eosin (H&E) staining and immunofluorescence imaging analysis. EpCAM and SMA were used as biomarkers to identify tumor epithelial cells and cancer-associated fibroblast cells, respectively, which are the main components of a breast tumor tissue. […] We were able to isolate reasonable numbers (>1×10^5) of autologous T cells from 8 out of 10 breast tumor tissues. […]

[2] = system: EO771 (Luc+OVA+) tumor organoids; experiment: Toxicity on tumor organoids without T cells (WST-1 viability); type: cell-based, mouse; settings: no T cells
Description: Tumor cell viability assay: For 2D tumor cell culture, tumor cells were seeded into 96 well plates at 2,000 cells per well and cultured for 72 h. For tumor organoids, tumor organoids with diameter between 70 and 150 μm were seeded at 50 organoids per well into 96-well microplates with ultra-low attachment surface (Corning). Cells or tumor organoids were treated with indicated compound at the final concentration of 1 μM. After 3-day culture, tumor organoids were dissociated into single cells using TrypLE Express (Corning) at 37° C. with a shaking velocity of 500 rpm on a thermomixer (Eppendorf) for 15 min. The 96-well microplates were added with 10 μl/well of Premix WST-1 reagent (TaKaRa) and incubated for 1 h. The microplates were read at absorbance of 450 nm on the Epoch microreader (BioTek). The toxicity of the epigenetic drugs was quantified using the premix WST-1 reagent according to the manufacturer's protocol.

[3] = PDO1, PDO3, PDO4, PDO5 and PDO8, 48 h pretreatment

| Structure (SMILES) | T cell-mediated cytotoxicity [1, 3] | T cell cytotoxicity [1] | T cell-mediated cytotoxicity ([1]; PDO6) | effect on the tumor organoids in the absence of T cells [2] |
| --- | --- | --- | --- | --- |
| Nc1ccccc1NC(=O)CCCCCCC(=O)Nc1ccccc1 [BML-210] | significantly higher T cell-mediated cytotoxicity | only moderate increases (statistically not significant) | higher T cell-mediated cytotoxicity | no notable effect |
| C#Cc1cccc(Nc2ncnc3cc(OC)c(OCCCCCCC(=O)NO)cc23)c1 [CUDC-101] | significantly higher T cell-mediated cytotoxicity | only moderate increases (statistically not significant) | modest effect | no notable effect |
| c1ccc([C@@H]2C[C@H]2NC2CCNCC2)cc1 [GSK-LSD1] | significantly higher T cell-mediated cytotoxicity | only moderate increases (statistically not significant) | higher T cell-mediated cytotoxicity | no notable effect |
